Source: patent US20250034139A1, “AMINE COMPOUNDS HAVING ANTI-INFLAMMATORY, ANTIFUNGAL, ANTIPARASITIC, AND ANTICANCER ACTIVITY” (PHARMA CINQ, LLC, priority 2013, published 2025)
In brackets after ≈: the same amount, converted by molar mass.

How the values were obtained:
[1] = tested on: PC3 human prostate cancer cells; test: Example S: in vitro anticancer screen, PC-3 cells, Wst1; format: cell-based; conditions: Homo sapiens, PC-3; 0.4 μM, approximately 20 hours, Wst1; read-out: PC-3, percent of cancer cell survival relative to vehicle treated cells
Method in brief: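 Values give percent survival relative to vehicle, read by Wst1 absorbance (450/630 nm) after 2 h dye incubation, in triplicate. Cells were seeded at 2×10^4/well and treated about 20 h with compound at 0.4, 0.5 or 2.5 μM, depending on compound.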

[2] = tested on: 4T1 murine breast cancer cells; test: Example S: in vitro anticancer screen, 4T1 cells, Wst1; format: cell-based, mouse; conditions: Mus musculus, 4T1, 18 h, 18 hr, Wst1; for viability at 1 µM: read-out: 4T1 1 μM, percent of cancer cell survival relative to vehicle treated cells; for viability at 5 µM: read-out: 4T1 5 μM, percent of cancer cell survival relative to vehicle treated cells
Method in brief: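 Read-out is Wst1 absorbance (450 nm, reference 630 nm) after roughly 2 hr dye incubation, giving percent cell survival versus vehicle. Before that, compounds at 1 μM or 5 μM were applied for 18 hr to 4T1 cells plated at 1×10^4 per well.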

[3] = tested on: PC-3 prostate cancer cells; test: Example T: sensitisation of PC-3 cells to doxorubicin, oxaliplatin, paclitaxel or vincristine, Wst1; format: cell-based, human; conditions: PC-3 cells, 72 hours; for viability at 0.4 µM: Homo sapiens, compound 0.4 μM alone, Wst1, vehicle = 100, read-out: No Chemo: percent cell survival; for Doxorubicin 3.5 μM: percent cell survival: compound 0.4 μM + doxorubicin 3.5 μM; for Doxorubicin 3.5 μM: percent cell survival / Oxaliplatin 100 μM: percent cell survival / Paclitaxel 50 μM: percent cell survival / Vincristine 100 nM: percent cell survival: chemotherapy agent alone normalized to 100%; for Oxaliplatin 100 μM: percent cell survival: compound 0.4 μM + oxaliplatin 100 μM; for Paclitaxel 50 μM: percent cell survival: compound 0.4 μM + paclitaxel 50 μM; for Vincristine 100 nM: percent cell survival: compound 0.4 μM + vincristine 100 nM
THP-1 cells [4] = test: Example D: LPS-triggered THP-1 cell death assay, acute/5-hour and chronic/48-hour; format: cell-based, Human; conditions: for Viable cell percent change, Chronic/48-hour, Mean: 10 ng/ml LPS, 0.1 μM test compound; for activity relative to AC in the LPS-triggered THP-1 cell death assay, in words: 0.1 μM, 5-hour and 48-hour time points
Experimental: Compounds of the invention were tested at 0.1 μM versus AC in the LPS-triggered THP-1 cell death assay. Both acute/5-hour and chronic/48-hour phases of cell death were assessed. Compounds were screened in batches with DMSO as the negative control and AC as the high activity control.

THP-1 cells [5] = test: Example C: compound screen, viable THP-1 cell count after 5 hours +/- LPS; format: cell-based, Human; conditions: for ability to inactivate pro-inflammatory THP-1 cells, in words (relative to benchmark AC): LPS-treated THP-1 cells
Text: Background: THP-1 is a human acute myeloid leukemia (AML) cell line that can be induced into a macrophage-like cell with vitamin-D3 (vit-D3). In the macrophage, LPS (lipopolysaccharide; endotoxin) stimulation of toll-like receptor 4 (TLR-4) leads to NF-κB activation and secretion of inflammatory cytokines but also the priming of programmed death pathways through RIP and Caspase 8. The balance of this complex regulatory network is dependent on highly specific kinases, enzymes that require ATP. Disruption of either cytosolic pH or ATP availability/energy level uncouples this control network and the can macrophage shift away from production of inflammatory cytokines towards a programmed death event, which has the net effect of limiting inflammatory damage.

Trichophyton rubrum = test: Example J: Trichophyton rubrum growth inhibition, scoring by eye; format: cell-based; conditions: Trichophyton rubrum, 144 h; 6 days at 30° C., tested 6 to 40 μM; read-out: MIC, μM (maximum inhibition concentration, scoring by eye)
Experimental: Trichophyton grown on two agar plates were collected by scraping into 10 ml saline and filtered through 8 μm filters. […] This experiment included some active compounds from previous experiment and added several untested compounds. […] Following table listed the maximum inhibition concentration (MIC) based on scoring by eye. Scrape frozen Trichophyton culture from ATCC vial and suspended in 100 μl PDB, and then plate on a PDA plate. Incubate plate at 30 C for 4 days. The plate was covered almost full. […] Take OD of collected solution at 520 nm and 600 nm: […] Part-II: […] Add 6 μl each of diluted compound solutions per well in triplicates. […] Wrap the plates with […] incubate all plates at 30° C. for 6 days. • Take picture of the plates on KODAK imager with 17 captures of 1.5 sec/capture for total of 25.5 second exposure.

[6] = tested on: Candida albicans strain 3153; test: Example H: Candida albicans growth inhibition (OD 600 nm); format: cell-based; conditions: for MIC: Candida albicans, 3153, 24 hrs at 30° C., YPD, XLfit, read-out: MIC (uM) (99% of inhibition of fungal growth); for IC50: Candida albicans, 3153, read-out: IC50 (uM) (50% inhibition of fungal growth), 24 hrs at 30° C., YPD, XLfit
Experimental: A single colony of Candida Albicans was grown in 50 ml YPD broth overnight (19 hr). The cells were washed with PBS and 3.5×10^4 CFU/ml of C. Albicans (144 μl/well) in YPD medium were plated in 96 well plates. Test compounds were then added to each well with concentration ranged from 5 to 40 μM as final concentrations. The plates were incubated at 30° C. overnight (24 hrs) and OD at 600 nm was read at the end of incubation as an index of yeast cell density.
Part-I: Preparation of Candida albicans Cells • 1. One day prior to the inoculum preparation, pick a single colony of Candida albicans strain 3153 (lot #61794) from the Sabouraud Dextrose Agar plate using the inoculum loop and inoculate into a 250 mL flask containing 50 ml of YPD growth medium • 2. Incubate at 30° C. with shaking at 150 rpm for at least 18 hours with loosened lid to allow air in and facilitate growth. • 3. Examine an aliquot of the culture under a microscope for Candida cell morphology and lack of bacterial contamination; >95% of Candida cells should be blastoconidia. • 4. Transfer 25 ml the overnight culture into a 50-ml plastic disposable centrifuge tube, and centrifuge at 1000×g for 20 min. • 5. Discard the supernatant and wash the pellet with 4 ml of PBS at three times. Vortex and centrifuge, 1000×g for 10 min. • 6. After the third wash, dispense the pellet with 2 ml PBS and vortex. • 7. Make three 1:10 serial dilutions in sterile PBS (10^−1, 10^−2, 10^−3) from the 2 ml cell suspension using 15 ml culture tubes. The final volume in each tube is 5 ml. • 8. […] Make a 1:4 dilution in YPD medium from the 50-fold dilution of 10^−3 cell suspension for testing compounds. • The final C. albicans cell concentration for the test: 3.5×10^4 CFU/ml • 10. Plated 144 ul/well of the above dilution of cell on 96-well plates. Part-II: C. Albicans Growth Inhibition Testing with Compounds • 1. From 10 mM DMSO stock solutions, make serial dilutions of compounds to 0.13, 0.25, 0.40, 0.55, 0.75 and 1.0 mM solutions • 2. Add 6 ul each of diluted compound solutions per well in duplicates. The final concentrations were 0, 5, 10, 16, 22, 30 and 40 micromolar. • 3. Incubated all plates at 30 C for overnight (˜24 hours). • 4. Read absorbance at OD600 for each plate. • 5. Calculate the % inhibition of each compound against the DMSO treated cell.

S. cerevisiae = test: Example I: Saccharomyces cerevisiae growth inhibition (OD 600 nm); format: cell-based; conditions: Saccharomyces cerevisiae, 18 hour incubation at 30° C., OD 600 nm, XLfit
Experimental: An overnight culture of S. cerevisiae was dilution in YPD broth to concentration of 40,000/ml and 150 μl/well was plated in 96 well plates. Compounds were then added to each well with concentration ranged from 4 to 50 μM as final concentration. The plates were inoculated at 30° C. overnight with shaking at 220 rpm and absorbance at 600 nm was read after 18 hour incubation.
• 1. One days prior to the inoculum preparation, pick a single colony of S. cerevisiae from the Sabouraud Dextrose Agar plate using the inoculum loop and inoculate into a 50 mL tube containing 10 ml of YPD growth medium • 2. Incubate at 30° C. with shaking at 220 rpm for 24 hours with loosen lid to allow air in and facilitates growth. • 3. Examine an aliquot of the culture under a microscope for yeast cell morphology and lack of bacterial contamination. • 4. Dilute the overnight culture with YPD medium at 1:30 dilution (70 ul to 2.1 ml) and count the number of cells as 4,230,000/ml. • 5. Mix 620 μl of 1:30 dilution and 64.4 ml YPD to make final concentration of 40,000/ml cells • 6. Plated 144 μl/well in four 96-well plates.
• 1. From 10 mM DMSO stock solutions, make serial dilutions of compounds to 0.1, 0.2, 0.3, 0.63 and 1.25 mM solutions • 2. Add 6 μl each of diluted compound solutions per well in duplicates. The final concentrations were 0, 4, 8, 12, 25 and 50 micromolar. • 3. Incubated all plates at 30 C for overnight (˜18 hours) with 220 rpm shaking. • 4. Read absorbance at OD600 for each plate on Spectra Max Plus plate reader. • 5. Calculate the % inhibition of each compound against the DMSO treated cell and plotted.

Structure (SMILES)	viability at 0.4 µM [1] [%]	viability at 1 µM [2] [%]	viability at 5 µM [2] [%]	viability at 0.4 µM [3] [%]	Doxorubicin 3.5 μM: percent cell survival [3] [%]	Oxaliplatin 100 μM: percent cell survival [3] [%]	Paclitaxel 50 μM: percent cell survival [3] [%]	Vincristine 100 nM: percent cell survival [3] [%]	Viable cell percent change, Chronic/48-hour, Mean (THP-1 cells [4]) [%]	activity relative to AC in the LPS-triggered THP-1 cell death assay, in words (THP-1 cells [4])	Reduction in viable THP-1 cell count (percent change) from 0 hours, Mean ± SE (THP-1 cells [5]; Compound (0.1 μM), No LPS) [%]	Reduction in viable THP-1 cell count (percent change) from 0 hours, Mean ± SE (THP-1 cells [5]; Compound (0.1 μM), Plus LPS) [%]	Reduction in viable THP-1 cell count (percent change) from 0 hours, Mean ± SE (THP-1 cells [5]; Compound (1.0 μM), No LPS) [%]	Reduction in viable THP-1 cell count (percent change) from 0 hours, Mean ± SE (THP-1 cells [5]; Compound (1.0 μM), Plus LPS) [%]	ability to inactivate pro-inflammatory THP-1 cells, in words (relative to benchmark AC) (THP-1 cells [5])	MIC (Trichophyton rubrum) [µM]	MIC [6] [µM]	IC50 [6] [µM]	IC50 (S. cerevisiae; read-out: IC50, uM (50% inhibition of fungal growth)) [µM]	MIC (S. cerevisiae; read-out: MIC, uM (99% of inhibition of fungal growth)) [µM]
COc1ccc(OCCCCCCNc2ccnc3ccccc23)cc1 [Compound CX, N-[6-(4-Methoxyphenoxy)hexyl]quinolin-4-amine]	45.9	25.1	20.7	45.9	21.7	22.2	48.2	38.1	8.50	more active than AC at the chronic/48-hour time point	−8.00 ± 1.41	−38.09 ± 0.41	−9.20 ± 3.09	−49.57 ± 2.44	higher activity than the active benchmark compound AC	–	–	–	–	–
COCCCCCCCCNc1ccnc2ccccc12 [CJ, N-(8-Methoxyoctyl)quinolin-4-amine]	53.7	22.6	24.1	53.7	18.9	19.7	51.7	16.9	15.44	more active than AC at the chronic/48-hour time point	−5.53 ± 3.89	−30.15 ± 4.41	−6.99 ± 1.55	−41.62 ± 1.80	higher activity than the active benchmark compound AC	–	–	–	–	–
CCCCCCc1ccc(Nc2ccnc3ccccc23)cc1 [AO, N-(4-Hexylphenyl)quinolin-4-amine]	35	28.9	18.6	35	80.7	91	93.1	91.1	25.19	–	–	–	–	–	–	> 40	84.9 (≈ 25.9 µg/mL)	34.7	–	–
CCCCCCNC(=O)c1ccc(Nc2ccnc3ccccc23)cc1 [AQ, N-Hexyl-4-(quinolin-4-ylamino)benzamide]	–	94.8	92.7	–	–	–	–	–	24.71	–	–	–	–	–	–	> 40	–	41.2	–	–
c1ccc(OCCCCCCCCNc2ccnc3ccccc23)cc1 [AN, N-(8-Phenoxyoctyl)quinolin-4-amine]	75.9	26.6	50.3	75.9	28.2	24.7	45.8	67.3	31.66	equivalent activity to AC at both the 5-hour and 48-hour time points	–	–	–	–	–	18 (≈ 6.27 µg/mL)	–	–	19.1	24.3 (≈ 8.45 µg/mL)
CCCCCCOc1ccc(Nc2ccnc3ccccc23)c(F)c1 [BL, N-[2-Fluoro-4-(hexyloxy)phenyl]quinolin-4-amine]	106	–	–	106	135.5	120	141.4	111.2	32.33	–	–	–	–	–	–	> 40	44.8 (≈ 15.2 µg/mL)	33.5	–	–
